The text below walks through data of US12257243B2, “5-hydroxy-7-oxabicyclo[2.2.1]heptane-2-carboxamide derivatives for inducing chondrogenesis for treating joint damage” (NOVARTIS AG, priority 2018, dated 2025).

This assay has as its system ALP in normal human articular chondrocytes (NHACs). The assay is described as follows: Alkaline Phosphatase (ALP) activity assay (staining and quantitation) in NHACs, prevention of chondrocyte hypertrophy. In kind it is cell-based. As to conditions: Chondrocyte, 288 h, human IL-1 beta 10 ng/mL, 12 days; for IC50: Fast Blue RR staining, high content imaging, read-out: ALP in NHAC IC50; for Emax: value in parentheses, read-out: ALP in NHAC (% Efficacy). Put shortly:
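Hypertrophy readout: ALP staining (Fast Blue RR with naphthol AS-MX phosphate) plus Hoechst, imaged at 561 nm and/or quantified by high-content multiwavelength cell scoring. Before staining, NHACs (7,500/well, DMEM/10% FBS) were exposed to compound for 5 h, then cultured with 10 ng/mL IL-1β for 12 days at 37 °C.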

`O=C(Nc1cc(C(F)(F)F)cc(C2CC2)n1)[C@@H]1[C@@H](c2cccc(C(F)(F)F)c2)[C@H]2O[C@@H]1C[C@@H]2O` (racemic) [Example 7, rac-(1R,2R,3S,4R 5S)—N-(6-cyclopropyl-4-(trifluoromethyl)pyridin-2-yl)-5-hydroxy-3-(3-(trifluoromethyl)phenyl)-7-oxabicyclo[2.2.1]heptane-2-carboxamide]: the IC50 is over 30 µM and the Emax was determined as 12%.

With `COc1ccc(C(F)(F)F)cc1NC(=O)[C@@H]1[C@@H](c2cn(C)nc2C(F)(F)F)[C@H]2O[C@@H]1C[C@@H]2O` (racemic) [Example 33, rac-(1R,2R,3S,4R,5)-5-hydroxy-N-(2-methoxy-5-(trifluoromethyl)phenyl)-3-(1-methyl-3-(trifluoromethyl)-1H-pyrazol-4-yl)-7-oxabicyclo[2.2.1]heptane-2-carboxamide], the IC50 was 2.8 µM and the Emax was found to be 74%.

For the molecule `O=C(Nc1cc(C(F)(F)F)c(Cl)cn1)[C@@H]1[C@@H](c2cccc(C(F)(F)F)c2)[C@H]2O[C@@H]1C[C@@H]2O` (racemic) [Example 6, rac-(1R,2R,3S,4R 5S)—N-(5-chloro-4-(trifluoromethyl)pyridin-2-yl)-5-hydroxy-3-(3-(trifluoromethyl)phenyl)-7-oxabicyclo[2.2.1]heptane-2-carboxamide], the IC50 is over 30 µM and the Emax was 38%.

`COc1cc([C@H]2[C@H]3O[C@H](C[C@@H]3O)[C@@H]2C(=O)Nc2cc(C(F)(F)F)ccc2F)ccn1` (racemic) [Example 76, rac-(1R,2R,3S,4R,5S)—N-(2-fluoro-5-(trifluoromethyl)phenyl)-5-hydroxy-3-(2-methoxypyridin-4-yl)-7-oxabicyclo[2.2.1]heptane-2-carboxamide]: the half-maximal inhibitory concentration (IC50) stood at 7.2 µM and the Emax is 53%.

In the case of `Cn1cc([C@H]2[C@H]3O[C@H](C[C@@H]3O)[C@@H]2C(=O)Nc2ccc(Cl)c(C(F)(F)F)c2)c(C(F)(F)F)n1` (racemic) [Example 53, rac-(1R,2R,3S,4R,5S)—N-(4-chloro-3-(trifluoromethyl)phenyl)-5-hydroxy-3-(1-methyl-3-(trifluoromethyl)-1H-pyrazol-4-yl)-7-oxabicyclo[2.2.1]heptane-2-carboxamide], the IC50 came out at 7.2 µM and the Emax amounted to 86%.

For the molecule `N#Cc1ccc(C(F)(F)F)cc1NC(=O)[C@@H]1[C@@H](c2cccc(C(F)(F)F)c2)[C@H]2O[C@@H]1C[C@@H]2O` (racemic) [Example 48, rac-(1R,2R,3S,4R,5S)—N-(2-cyano-5-(trifluoromethyl)phenyl)-5-hydroxy-3-(3-(trifluoromethyl)phenyl)-7-oxabicyclo[2.2.1]heptane-2-carboxamide], the IC50 turned out to be 0.088 µM and the Emax amounted to 92%.

Regarding `Cc1cc(NC(=O)[C@@H]2[C@@H](c3cc(C(F)(F)F)nn3C)[C@H]3O[C@@H]2C[C@@H]3O)cc(C(F)(F)F)c1` (racemic) [Example 71, rac-(1R,2R,3S,4R,5S)-5-hydroxy-3-(1-methyl-3-(trifluoromethyl)-1H-pyrazol-5-yl)-N-(3-methyl-5-(trifluoromethyl)phenyl)-7-oxabicyclo[2.2.1]heptane-2-carboxamide], the IC50 was over 30 µM and the Emax was determined as 29%.

Take `Cn1cc([C@H]2[C@H]3O[C@H](C[C@@H]3O)[C@@H]2C(=O)Nc2ccc(C(F)(F)F)cc2)c(C(F)(F)F)n1` (racemic) [Example 29, rac-(1R,2R,3S,4R,5S)-5-hydroxy-3-(1-methyl-3-trifluoromethyl)-1H-pyrazol-4-yl)-N-(4-(trifluoromethyl)phenyl)-7-oxabicyclo[2.2.1]heptane-2-carboxamide]: the half-inhibitory concentration (IC50) was 11 µM and the Emax is 72%.

The IC50 is the concentration that gives 50% inhibition.
